Reference: PubChem BioAssay (NCI)
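Five concentrations, 48 hours, 96-well plates. GI50 is the concentration that inhibits growth by half. TGI denotes the concentration required for complete inhibition of growth.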

Assays:
Test in all cases: NCI-60 cell line screen, 48 h
[1] = test system: HS 578T breast
[2] = test system: SN12C renal
[3] = test system: A498 renal
[4] = test system: U251 CNS
[5] = test system: MALME-3M melanoma
[6] = test system: BT-549 breast
[7] = test system: K-562 leukemia
[8] = test system: NCI/ADR-RES ovarian
[9] = test system: OVCAR-4 ovarian
[10] = test system: HCT-15 colon
[11] = test system: SK-MEL-5 melanoma
[12] = test system: DU-145 prostate
[13] = test system: SR leukemia
[14] = test system: 786-0 renal
[15] = test system: KM12 colon
[16] = test system: LOX IMVI melanoma
[17] = test system: CCRF-CEM leukemia
[18] = test system: NCI-H226 lung
[19] = test system: HCC-2998 colon
[20] = test system: PC-3 prostate
[21] = test system: OVCAR-8 ovarian
[22] = test system: SF-539 CNS
[23] = test system: A549 NSCLC
[24] = test system: MDA-MB-435
[25] = test system: SNB-75 CNS
[26] = test system: SW-620 colon
[27] = test system: SF-268 CNS
[28] = test system: TK-10 renal
[29] = test system: SK-MEL-2 melanoma
[30] = test system: CAKI-1 renal
[31] = test system: RPMI-8226 leukemia
[32] = test system: SNB-19 CNS
[33] = test system: HT29 colon
[34] = test system: MOLT-4 leukemia
[35] = test system: IGROV1 ovarian
[36] = test system: EKVX NSCLC
[37] = test system: T-47D breast
[38] = test system: COLO 205 colon
[39] = test system: MDA-MB-231 breast
[40] = test system: UACC-257 melanoma
[41] = test system: RXF 393 renal
[42] = test system: SF-295 CNS
[43] = test system: HCT-116 colon
[44] = test system: M14 melanoma
[45] = test system: UACC-62 melanoma
[46] = test system: MCF7 breast
[47] = test system: UO-31 renal
[48] = test system: ACHN renal
[49] = test system: NCI-H23 lung
[50] = test system: SK-OV-3 ovarian
[51] = test system: OVCAR-3 ovarian
[52] = test system: HL-60(TB) leukemia
[53] = test system: HOP-62 NSCLC
[54] = test system: HOP-92 NSCLC
[55] = test system: OVCAR-5 ovarian
[56] = test system: NCI-H522 lung

## Cc1ccc(NC(=O)CSc2nnc3n(Cc4ccccc4)c(=O)c4c(C)c(C(N)=O)sc4n23)cc1
[1]
  GI50: 5.22 µM
  TGI: 77.6 µM
[2]
  GI50: > 100 µM
  TGI: > 100 µM
[3]
  GI50: 13.2 µM
  TGI: 63.1 µM
[4]
  GI50: 5.17 µM
  TGI: 52.9 µM
[5]
  GI50: > 100 µM
  TGI: > 100 µM
[6]
  GI50: 12.7 µM
  TGI: 72 µM
[7]
  GI50: 42.5 µM
  TGI: > 100 µM
[8]
  GI50: > 100 µM
  TGI: > 100 µM
[9]
  GI50: > 100 µM
  TGI: > 100 µM
[10]
  GI50: > 100 µM
  TGI: > 100 µM
[11]
  GI50: > 100 µM
  TGI: > 100 µM
[12]
  GI50: 60.5 µM
  TGI: > 100 µM
[13]
  GI50: 16.4 µM
  TGI: 34.2 µM
[14]
  GI50: 10 µM
  TGI: 49.7 µM
[15]
  GI50: > 100 µM
  TGI: > 100 µM
[16]
  GI50: > 100 µM
  TGI: > 100 µM
[17]
  GI50: 20.1 µM
  TGI: 46.1 µM
[18]
  GI50: 27.2 µM
  TGI: > 100 µM
[19]
  GI50: > 100 µM
  TGI: > 100 µM
[20]
  GI50: > 100 µM
  TGI: > 100 µM
[21]
  GI50: > 100 µM
  TGI: > 100 µM
[22]
  GI50: 21.7 µM
  TGI: > 100 µM
[23]
  GI50: > 100 µM
  TGI: > 100 µM
[24]
  GI50: > 100 µM
  TGI: > 100 µM
[25]
  GI50: 5.72 µM
  TGI: 23.8 µM
[26]
  GI50: > 100 µM
  TGI: > 100 µM
[27]
  GI50: 14.4 µM
  TGI: 86.8 µM
[28]
  GI50: 13.7 µM
  TGI: 34 µM
[29]
  GI50: 16 µM
  TGI: 43.3 µM
[30]
  GI50: > 100 µM
  TGI: > 100 µM
[31]
  GI50: > 100 µM
  TGI: > 100 µM
[32]
  GI50: 14.6 µM
  TGI: > 100 µM
[33]
  GI50: > 100 µM
  TGI: > 100 µM
[34]
  GI50: 27.3 µM
  TGI: 81.5 µM
[35]
  GI50: 37 µM
  TGI: > 100 µM
[36]
  GI50: 95 µM
  TGI: > 100 µM
[37]
  GI50: 8.12 µM
  TGI: > 100 µM
[38]
  GI50: 78 µM
  TGI: > 100 µM
[39]
  GI50: 3.44 µM
  TGI: 58.8 µM
[40]
  GI50: > 100 µM
  TGI: > 100 µM
[41]
  GI50: 6.88 µM
  TGI: 39 µM
[42]
  GI50: 26.7 µM
  TGI: 76.6 µM
[43]
  GI50: 3.5 µM
  TGI: > 100 µM
[44]
  GI50: 26 µM
  TGI: > 100 µM
[45]
  GI50: > 100 µM
  TGI: > 100 µM
[46]
  GI50: > 100 µM
  TGI: > 100 µM
[47]
  GI50: > 100 µM
  TGI: > 100 µM
[48]
  GI50: 19.9 µM
  TGI: 51 µM
[49]
  GI50: 17.3 µM
  TGI: > 100 µM
[50]
  GI50: 4.28 µM
  TGI: 65.4 µM
[51]
  GI50: > 100 µM
  TGI: > 100 µM
[52]
  GI50: > 100 µM
  TGI: > 100 µM
[53]
  GI50: 21 µM
  TGI: 56 µM
[54]
  GI50: 2.57 µM
  TGI: 12.2 µM
[55]
  GI50: 64.7 µM
  TGI: > 100 µM
[56]
  GI50: 3.85 µM
  TGI: > 100 µM
